This is an account of results in patent US10112935B2, “Indazolyl thiadiazolamines and related compounds for inhibition of Rho-associated protein kinase and the treatment of disease” (Lycera Corporation, priority 2015, dated 2018).

The target in assay [1] is GST-tagged human ROCK2 catalytic domain 1-553 (Homo sapiens (Human), UniProt O75116). Description: Inhibition of Rho-associated protein kinase isoform 2 (LANCE Ultra ULight-CREBtide FRET kinase assay). Format: biochemical. To be noted: for IC50: 30 μM was the highest concentration analyzed; for Selectivity for ROCK2 over ROCK1 (IC50 ROCK1 / IC50 ROCK2): selectivity ROCK2 vs ROCK1. In short, it runs like this:
(§1)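 Baculovirus-expressed kinase phosphorylated ULight-CREBtide for 90 min at room temperature before the reaction was stopped with 10 mM EDTA. Phospho-substrate was detected by TR-FRET with 1 nM Europium-anti-phospho-CREB (Ser133) antibody after 60 min at room temperature.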
A general note: In TR-FRET formats the signal depends on donor and acceptor labels being close together.

In assay [2] the target is GST-tagged human ROCK1 catalytic domain 1-477 (Homo sapiens (Human), UniProt Q13464). Description: Inhibition of Rho-associated protein kinase isoform 1 (LANCE Ultra ULight-CREBtide FRET kinase assay). The format is biochemical. The following applies: 30 μM was the highest concentration analyzed. In short, it runs like this: as §1
Assay [3] relates to ROCK. The following applies: rat stroke model; cited from earlier work.
Assay [4] relates to ROCK. The following applies: porcine, IL-1 beta-induced; cited from earlier work.

The structures appear in SMILES notation.

GST-tagged human ROCK2 catalytic domain 1-553, sequence (O75116 1-553): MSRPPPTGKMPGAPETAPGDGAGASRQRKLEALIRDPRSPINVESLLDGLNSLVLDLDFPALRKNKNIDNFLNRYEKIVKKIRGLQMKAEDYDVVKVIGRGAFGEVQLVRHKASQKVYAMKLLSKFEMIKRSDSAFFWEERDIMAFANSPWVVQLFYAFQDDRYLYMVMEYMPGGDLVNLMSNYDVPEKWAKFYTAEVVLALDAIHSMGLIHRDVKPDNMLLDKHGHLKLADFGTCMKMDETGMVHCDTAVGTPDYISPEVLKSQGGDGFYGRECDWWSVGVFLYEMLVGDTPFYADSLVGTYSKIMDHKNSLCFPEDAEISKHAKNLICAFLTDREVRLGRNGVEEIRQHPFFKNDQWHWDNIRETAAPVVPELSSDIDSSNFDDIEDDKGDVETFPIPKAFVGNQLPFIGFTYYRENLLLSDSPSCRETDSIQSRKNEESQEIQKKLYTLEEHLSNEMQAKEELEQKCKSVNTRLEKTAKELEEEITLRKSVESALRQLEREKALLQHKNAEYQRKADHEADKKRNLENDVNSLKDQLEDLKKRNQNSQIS
GST-tagged human ROCK1 catalytic domain 1-477, sequence (Q13464 1-477): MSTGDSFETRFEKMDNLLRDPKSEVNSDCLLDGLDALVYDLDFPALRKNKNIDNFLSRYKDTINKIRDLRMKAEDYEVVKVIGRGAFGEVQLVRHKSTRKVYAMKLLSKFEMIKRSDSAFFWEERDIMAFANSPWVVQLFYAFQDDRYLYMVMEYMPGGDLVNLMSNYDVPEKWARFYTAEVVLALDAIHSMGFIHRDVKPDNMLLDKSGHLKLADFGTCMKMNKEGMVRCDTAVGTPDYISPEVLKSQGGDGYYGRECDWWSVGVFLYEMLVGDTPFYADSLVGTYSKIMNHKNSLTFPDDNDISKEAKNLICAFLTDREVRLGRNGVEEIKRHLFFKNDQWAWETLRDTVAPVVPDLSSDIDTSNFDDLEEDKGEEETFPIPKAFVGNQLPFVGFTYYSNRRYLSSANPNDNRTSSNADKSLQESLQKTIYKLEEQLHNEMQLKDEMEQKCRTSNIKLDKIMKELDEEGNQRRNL

Regarding `Cc1cc(C(=O)Nc2cccc(-c3nnc(Nc4ccc5[nH]ncc5c4)s3)c2)[nH]n1` [Example A-39], in assay [1], the concentration for half-maximal inhibition (IC50) (as a rule, the concentration that inhibits the measured activity by half) was below 1 µM and the “Selectivity for ROCK2 over ROCK1 (IC50 ROCK1 / IC50 ROCK2)” value (“Selectivity … (IC50 ROCK1 / IC50 ROCK2)” below) is given as above 5. Moreover, the half-inhibitory concentration (IC50) in assay [2] fell in the range of 1 to 15 µM.
As to `Cc1cc(C(=O)Nc2cccc(-c3nnc(Nc4ccc5[nH]ncc5c4)s3)c2)no1` [Example A-40], in assay [1], the IC50 was below 1 µM and the “Selectivity … (IC50 ROCK1 / IC50 ROCK2)” value is reported as above 100. This compound also yielded an IC50 in assay [2] above 30 µM.
As for `Cn1cc(C(=O)Nc2cccc(-c3nnc(Nc4ccc5[nH]ncc5c4)s3)c2)cn1` [Example A-41], in assay [1], the IC50 is below 1 µM and the “Selectivity … (IC50 ROCK1 / IC50 ROCK2)” value is above 100. The same compound gave an IC50 in assay [2] above 30 µM.
As to `Cn1ccc(C(=O)Nc2cccc(-c3nnc(Nc4ccc5[nH]ncc5c4)s3)c2)n1` [Example A-42], in assay [1], the 50% inhibitory concentration (IC50) is below 1 µM and the “Selectivity … (IC50 ROCK1 / IC50 ROCK2)” value is recorded as above 5. The same compound yielded an IC50 in assay [2] below 1 µM.
With `Cn1nccc1C(=O)Nc1cccc(-c2nnc(Nc3ccc4[nH]ncc4c3)s2)c1` [Example A-43], in assay [1], the half-maximal inhibitory concentration (IC50) is below 1 µM and the “Selectivity … (IC50 ROCK1 / IC50 ROCK2)” value is given as above 100. In assay [2], this compound gave an IC50 above 30 µM.
The corresponding values for `Cc1cnoc1C(=O)Nc1cccc(-c2nnc(Nc3ccc4[nH]ncc4c3)s2)c1` [Example A-44] are below 1 µM, above 100 and above 30 µM.
With `O=[N+]([O-])c1cccc(-c2nnc(Nc3ccc4[nH]ncc4c3)s2)c1` [Example A-45], the half-maximal inhibitory concentration (IC50) in assay [1] and in assay [2] was 1 to 15 µM throughout. Moreover, the “Selectivity … (IC50 ROCK1 / IC50 ROCK2)” value in assay [1] is on record as below 5.
For the compound `O=C(Nc1cccc(-c2nnc(Nc3ccc4[nH]ncc4c3)s2)c1)c1cn[nH]c1` [Example A-46], in assay [1], the half-inhibitory concentration (IC50) was below 1 µM and the “Selectivity … (IC50 ROCK1 / IC50 ROCK2)” value is listed as above 100. The same compound gave an IC50 in assay [2] above 30 µM.
As for `Nc1cccc(-c2nnc(Nc3ccc4[nH]ncc4c3)s2)c1` [Example A-47], in assay [1], the IC50 was in the range of 1 to 15 µM and the “Selectivity … (IC50 ROCK1 / IC50 ROCK2)” value is reported as above 5. For the same compound, the IC50 in assay [2] is above 30 µM.
On to `c1cc2[nH]ncc2cc1Nc1nnc(N2CCNCC2)s1` [Example A-48], for which, in assay [1], the 50% inhibitory concentration (IC50) fell in the range of 1 to 15 µM and the “Selectivity … (IC50 ROCK1 / IC50 ROCK2)” value is below 5. In assay [2], the concentration for half-maximal inhibition (IC50) was 1 to 15 µM.
With `O=C(Nc1cccc(-c2nnc(Nc3ccc4[nH]ncc4c3)s2)c1)c1c[nH]cn1` [Example A-49], in assay [1], the IC50 is below 1 µM and the “Selectivity … (IC50 ROCK1 / IC50 ROCK2)” value is listed as above 100. The IC50 in assay [2] is above 30 µM.
Take `O=C(Nc1cccc(-c2nnc(Nc3ccc4[nH]ncc4c3)s2)c1)c1cccnc1` [Example A-50]: in assay [1], the IC50 is below 1 µM and the “Selectivity … (IC50 ROCK1 / IC50 ROCK2)” value was above 100. In addition, the IC50 in assay [2] is above 30 µM.
In the case of `O=S(=O)(c1cccc2cnccc12)N1CCCNCC1` [fasudil], the “infarct size and neurologic deficit” value with ROCK [3] was “reduce both the infarct size and neurologic deficit”. Also, the coronary stenosis entry in the assay on ROCK [4] is on record as “progressively reduce coronary stenosis”.
